{"source": "patent US9499811B2", "about": "“Ligation enhancement” (New England Biolabs, Inc., priority 2011, dated 2016)", "key": {"T4 DNA ligase [1]": {"biological_target": "T1, T4 DNA ligase (Enterobacteria phage T4, UniProt P00970)", "T1 sequence (P00970 1-487)": "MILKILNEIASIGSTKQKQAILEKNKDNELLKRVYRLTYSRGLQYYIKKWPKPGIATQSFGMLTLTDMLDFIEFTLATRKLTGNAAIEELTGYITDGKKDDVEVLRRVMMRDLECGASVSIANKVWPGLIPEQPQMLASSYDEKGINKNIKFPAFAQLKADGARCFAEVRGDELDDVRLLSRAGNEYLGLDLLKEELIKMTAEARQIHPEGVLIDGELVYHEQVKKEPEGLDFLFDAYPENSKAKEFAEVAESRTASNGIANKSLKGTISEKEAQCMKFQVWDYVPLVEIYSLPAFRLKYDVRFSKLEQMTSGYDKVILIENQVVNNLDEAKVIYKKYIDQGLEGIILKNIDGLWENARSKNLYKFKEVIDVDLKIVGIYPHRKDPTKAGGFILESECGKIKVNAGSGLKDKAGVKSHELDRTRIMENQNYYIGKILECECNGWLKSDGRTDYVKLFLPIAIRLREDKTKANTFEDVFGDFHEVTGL", "assay": "Recircularization of AhdI-linearized pUC19 and transformation of NEB Turbo cells (FIGS. 1A-C)", "assay_type": "biochemical", "parameters": "purchased NEB (New England Biolabs), Ipswich, Mass. #M0202", "conditions": "0, 4%, 6% 1,2-PrD, 400 U T4 DNA ligase, 20 min 16 C", "text": "FIGS. 1A-C show the results of recircularization through ligation of double-stranded linearized plasmid DNA in the presence of increasing amounts of 1,2-PrD. The ligated DNA is subsequently transformed into competent E. coli cells, followed by plating on agar ampicillin selection plates. The extent of successful transformation is illustrated by the numbers of colonies on the plate.\nLinearization of the pUC19 plasmid was achieved using AhdI to generate single-base overhangs as described in FIG. 3A. Ligation of the cleaved DNA was performed in a 20 μl ligation reaction containing 100 ng of DNA in the presence and absence of 1,2-PrD and 400 U of T4 DNA ligase was incubated for 20 min at 16° C., then heated to 65° C. for 45 min to inactivate the ligase. Transformation of cells with the ligated DNA was performed using chemically competent NEB Turbo™ cells (NEB, Ipswich, Mass., #C2984H) as described in Example 1 using 2 μl of the ligation mix (containing 10 ng DNA) with an outgrowth period of 20 min."}, "T4 DNA ligase [2]": {"biological_target": "T1, T4 DNA ligase", "assay": "Cloning of a 500 bp amplicon made by Taq DNA polymerase into a T-tailed vector (ligation test system a)", "assay_type": "biochemical", "parameters": "purchased NEB (New England Biolabs), Ipswich, Mass. #M0202", "conditions": "enhancer at 12%; no addition = 1-fold; single-base overhangs", "experimental": "All were tested side-by-side using two ligation test systems which were: (a) cloning of a 500 bp amplicon made by Taq DNA polymerase into a T-tailed vector; and (b) recircularization of an AhdI-linearized plasmid. Both ligation test systems used DNA with single-base overhangs.\n(§1) The reaction mixtures contained DNA at 50-100 ng and 1,2-PrD at different concentrations. 1 μl of regular concentration (NEB, Ipswich, Mass., #M0202; 400 units) or 1 μl of high concentration T4 DNA ligase (NEB, Ipswich, Mass., #M0202; 2000 units) was then added to a final volume of 21 μl in 1×T4 DNA Ligase Buffer (NEB, Ipwich, Mass., #B0202) or 1× Quick Ligase™ Buffer (NEB, Ipswich, Mass., #B2200).\n(§2) A standard assay uses 100 ng DNA, 1 μl of T4 DNA ligase, 21 μl 1×T4 DNA ligase buffer and varying amounts of enhancer.\n(§3) Ligation reactions were incubated for 10 min at room temperature (25° C.) unless otherwise stated, then placed on ice for 2 min. In some experiments the ligase was heat-killed by incubation at 65° C. for 20 min. The ligation reactions were analyzed by 1% agarose gel electrophoresis to identify DNA species and determine the efficiency of […].\nA volume of 2 μl from each ligation reaction was incubated with 50 μl of chemically competent (NEB, Ipswich, Mass., #C2987I) or electrocompetent (NEB, Ipswich, Mass., #C2989K) DH5 alpha E. coli cells.\n(§4) For chemically competent cell transformations, the cell-DNA mixture was incubated on ice for 30 min, heat-shocked at 42° C. for 30 sec, then returned to ice for 5 min. A volume of 950 μl SOC medium (2% vegetable peptone or Tryptone, 0.5% yeast extract, 10 mM NaCl, 2.5 mM KCl, 10 mM MgCl2, 10 mM MgSO4 and 20 mM glucose) was added to the cell-DNA mixture, followed by a one hr 37° C. outgrowth period with agitation. A volume of 25-50 μl of appropriately diluted cells in SOC was spread onto Rich Agar plates (composition per liter: 10 g soy peptone, 5 g yeast extract, 10 g NaCl, 1 g MgCl2-6H2O, 1 g dextrose, 15 grams agar) supplemented with 100 μg/ml ampicillin. Plates were inverted and incubated for 16 hrs at 37° C., followed by quantification of total colony numbers."}, "[3]": {"tested_on": "chemically competent DH5 alpha E. coli cells", "assay": "Mock ligation with supercoiled pUC19 DNA and transformation (control)", "assay_type": "cell-based", "conditions": "12% 1,2-PrD; for Transformants from 2 pg SC DNA: supercoiled pUC19", "experimental": "as §4\nMock DNA ligations were set up with 1 ng of supercoiled pUC19 DNA in 1× regular DNA ligase buffer in the presence and absence of 2000 units T4 DNA ligase and with or without 12% 1,2-PrD. Ligation reactions were conducted using the standard protocol in Example 1 and transformations with chemically competent DH5 alpha E. coli cells. 40 μl of a 1:20 dilution of the 1 ml SOC outgrowth containing 2 pg supercoiled DNA was plated onto agarose plates and incubated overnight.\nThis illustrates the enhancement is at the ligation step and not the transformation step."}, "T4 DNA ligase [4]": {"biological_target": "T1, T4 DNA ligase", "assay": "Ligation efficiency assay (standard assay, various ligases and buffers)", "assay_type": "biochemical", "parameters": "purchased NEB (New England Biolabs), Ipswich, Mass. #M0202", "conditions": "1%-12% 1,2-PrD; various concentrations and types of DNA ligase, regular and Quick Ligase buffers", "experimental": "as §1, §2, §3"}}, "note": "Where “and” joins values, the source holds several entries; their conditions need not be identical. Identical values can stand only once. Entries after “also recorded” stand apart in the source; their conditions may differ."}
{"smiles": "CC(O)CO", "note": "(stereo not drawn) [1,2-PrD, 1,2-propanediol]", "values": [{"measurement": "Transformation levels (number of colonies)", "setting": "T4 DNA ligase [1]", "result": "the greater the number of transformants; also recorded: increased transformation levels"}, {"measurement": "Cloning Enhancement", "setting": "T4 DNA ligase [2]", "result": "14-fold"}, {"measurement": "Transformants from 2 pg SC DNA", "setting": "[3]; 2000 U T4 DNA ligase, duplicate reactions", "result": "82 and 73"}, {"measurement": "Transformants from 2 pg SC DNA", "setting": "[3]; T4 DNA ligase none", "result": 126}, {"measurement": "Effect on transformation with supercoiled pUC19 DNA", "setting": "[3]; with or without T4 DNA ligase", "result": "not statistically altered; also recorded: does not affect nor interfere with transformation"}, {"measurement": "Enhancement of ligation", "setting": "T4 DNA ligase [4]", "result": "consistent enhancement of ligation"}]}
